Four compounds from paper PMC3759264 (The Journal of organic chemistry, 2013) can be followed below.

One experiment concerns M. tuberculosis H37Rv. In words: M. tuberculosis H37Rv MIC assay. In kind it is cell-based, Mycobacterium tuberculosis. The following applies: Mtb H37Rv; for MIC50 –Fe: iron-deficient; for MIC50 +Fe: iron-replete.
Experiment [1] deals with T1, MbtA (Mycobacterium tuberculosis, UniProt P71716). In kind it is biochemical. Conditions: read-out: Ki^app MbtA; 250 µM salicylic acid, 10 mM ATP, 1 mM PPi, 7 nM MbtA.
T1 sequence (P71716 whole entry): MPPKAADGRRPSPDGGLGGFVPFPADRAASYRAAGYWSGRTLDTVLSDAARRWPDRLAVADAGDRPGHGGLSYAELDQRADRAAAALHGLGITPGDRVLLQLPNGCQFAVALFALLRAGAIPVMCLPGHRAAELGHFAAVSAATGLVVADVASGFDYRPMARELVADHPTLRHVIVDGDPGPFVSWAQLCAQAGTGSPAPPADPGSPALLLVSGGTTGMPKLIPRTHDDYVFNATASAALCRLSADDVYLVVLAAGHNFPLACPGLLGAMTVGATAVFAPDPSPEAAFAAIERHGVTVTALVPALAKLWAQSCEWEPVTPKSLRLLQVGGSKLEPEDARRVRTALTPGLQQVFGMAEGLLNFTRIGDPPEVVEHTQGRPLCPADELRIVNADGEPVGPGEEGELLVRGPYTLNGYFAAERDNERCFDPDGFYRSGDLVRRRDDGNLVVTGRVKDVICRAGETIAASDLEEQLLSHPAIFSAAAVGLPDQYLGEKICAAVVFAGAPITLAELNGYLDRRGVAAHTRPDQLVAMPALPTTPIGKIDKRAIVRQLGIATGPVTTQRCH
Experiment [2] has as its target T1, MbtA. In kind it is binding.

Where only a bound is given, the exact number is not on record here.

With `Nc1ncnc2c1ncn2[C@@H]1O[C@H](CNS(=O)(=O)c2coc3ccccc3c2=O)[C@@H](O)[C@H]1O` [Compound 1, 5′-Amino-5′-N-[(chromon-3-yl)sulfonyl]-5′-deoxy-adenosine], in the experiment on M. tuberculosis H37Rv, the “MIC50 –Fe” value is more than 50 µM and the “MIC50 +Fe” value is recorded as more than 50 µM.

Turning to `Nc1ncnc2c1ncn2[C@@H]1O[C@H](CNS(=O)(=O)c2c[nH]c3ccccc3c2=O)[C@@H](O)[C@H]1O` [Compound 2, 5′-Amino-5′-deoxy-5′-N-[(quinol-4-on-3-yl)sulfonyl]adenosine], the Ki on MbtA [1] turned out to be 120 ± 20 nM. In the experiment on M. tuberculosis H37Rv, the “MIC50 –Fe” value is more than 50 µM and the “MIC50 +Fe” value was more than 50 µM.

Turning to `Nc1ncnc2c1ncn2[C@@H]1O[C@H](CNS(=O)(=O)c2noc3ccccc3c2=O)[C@@H](O)[C@H]1O` [Compound 3, 5′-Amino-5′-deoxy-5′-N-[(4-oxo-4H-benzo[e][1,2]oxazin-3-yl)sulfonyl]adenosine], at MbtA [2], the “fold increase in potency (KD, MbtA) relative to chromone 1” value is given as approximately 10 fold. Also, in the experiment on M. tuberculosis H37Rv, the “MIC50 –Fe” value is more than 50 µM and the “MIC50 +Fe” value is more than 50 µM.

In the case of `Nc1ncnc2c1ncn2[C@@H]1O[C@H](CNS(=O)(=O)c2coc3c(O)cccc3c2=O)[C@@H](O)[C@H]1O` [Compound 4, 5′-Amino-5′-deoxy-5′-N-[(8-hydroxychromon-3-yl)sulfonyl]adenosine], the “fold loss of potency (KD, MbtA) relative to chromone 1” value at MbtA [2] (FP assay) came out at 80 fold. Moreover, in the experiment on M. tuberculosis H37Rv, the “MIC50 –Fe” value is more than 50 µM and the “MIC50 +Fe” value is listed as more than 50 µM.
